Results published in patent publication EP3991729A1, “USE OF AMLEXANOX IN PREPARING ANTI-HEPATITIS VIRUS DRUG” (Marine Biomedical Research Institute Of Qingdao Co., Ltd., priority 2019, dated 2020).
Counter-ions that a name gives are not always drawn.

Legend:
A549 cells = test: Cytotoxicity test, MTT assay; assay type: cell-based; conditions: Homo sapiens, A549; 1 µM, 72h
Method: (§1) […]. Various cells in the logarithmic growth phase were seeded in 96-well plates at 6,000 cells/well and cultured for 24h. […]. The dosage of DMSO in the solvent control group was based on the maximum dose of 0.1% used in the test group, with four duplicate wells for each concentration. Cells were treated with the drug for 72h and then added with 20µL 5 mg/mL MTT, cultured at 37°C for 4h, after added 100 µ L triple solution (10% SDS, 5% isobutanol, 12 mM hydrochloric acid), 96-well cell culture plate was placed in an incubator containing 5% CO2 at 37 ± 1°C overnight. OD value at 570nm was measured on a microplate reader.
(§2) The inhibition rate of tumor cell growth was calculated according to the following formula: Inhibition rate(%) = [(OD570controlwell−OD570dosewell)/OD570controlwell] × 100. [formula]

MCF7 cells = test: Cytotoxicity test, MTT assay; assay type: cell-based; conditions: Homo sapiens, MCF7; 1 µM, 72h; read-out: Inhibition (%) MC F7
Method: as §1, §2

Huh7 cells = test: Cytotoxicity test, MTT assay; assay type: cell-based; conditions: Homo sapiens, Huh-7; 1 µM, 72h; read-out: Inhibition (%) Hu h7
Method: as §1, §2

MKN45 cells = test: Cytotoxicity test, MTT assay; assay type: cell-based; conditions: Homo sapiens, MKN-45; 1 µM, 72h
Method: as §1, §2

HepG2 cells = test: Cytotoxicity test, MTT assay; assay type: cell-based; conditions: Homo sapiens, HepG2; 1 µM, 72h; read-out: Inhibition (%) Hep G2
Method: as §1, §2

Hela cells = test: Cytotoxicity test, MTT assay; assay type: cell-based; conditions: Homo sapiens, 1 µM, 72h, read-out: Inhibition (%) Hel a
Method: as §1, §2

293 cells = test: Cytotoxicity test, MTT assay; assay type: cell-based; conditions: Homo sapiens, HEK293; 1 µM, 72h
Method: as §1, §2

HCT-116 cells = test: Cytotoxicity test, MTT assay; assay type: cell-based; conditions: Homo sapiens, HCT-116; 1 µM, 72h
Method: as §1, §2

B and T cells = test: Immune cells in blood of HBV-infected mice, flow cytometry; conditions: 530 mg/kg/day, once a day, oral gavage, day 9, Figure 19
Method: Six-week-old male C57 mice were rapidly injected with 10µg/mouse of viral genomic DNA (genotype A) by tail vein injection in a short period. Viral infection was established using a venous hypertension model and randomly divided into groups. […] At the same time, a blank control was set up, and oral administration in uninfected mice was equivalent to the model group.
On day 9, mice were sacrificed to collect blood stained with flow antibody after fission red. All cells were treated with anti-FcγRIII/ II (purchased from BD Biosciences) in PBS for 30 min. CD3e-FITC (purchased from BD Biosciences). CD4-PE, CD8a-APC-Vio770, and CD34-FITC (GE). CD19-APC, CD11b-PE-Cyanine7, and CD117-efflor 450 (purchased from eBioscience). After staining, the samples were suspended using 500µL PBS and analyzed by BD Aria III flow cytometer.

SMILES	inhibition at 1 µM (A549 cells)	inhibition at 1 µM (MCF7 cells)	inhibition at 1 µM (Huh7 cells)	inhibition at 1 µM (MKN45 cells)	inhibition at 1 µM (HepG2 cells)	inhibition at 1 µM (Hela cells)	inhibition at 1 µM (293 cells)	inhibition at 1 µM (HCT-116 cells)	effect on immune cells in blood (B and T cells)
COc1cccc2c1C(=O)c1c(O)c3c(c(O)c1C2=O)C[C@@](O)(C(=O)CO)C[C@@H]3O[C@H]1C[C@H](N)[C@H](O)[C@H](C)O1 [Adriamyci n Hydrochloride, doxorubicin hydrochloride]	85.8%	88%	76.9%	39.4%	92.1%	48.8%	57.9%	71.9%	–
Nc1ccn([C@@H]2CS[C@H](CO)O2)c(=O)n1 [lamivudine]	–	–	–	–	–	–	–	–	had some inhibitory effects on immune cells
